In patent US9828385B2, “Spiro-oxazolones” (Hoffmann-La Roche Inc., priority 2014, dated 2017):

Target: T1, human V1a receptor (Homo sapiens, UniProt P37288)
T1 construct: expressed in transfected cells; host or cells: HEK293 cells, transiently transfected; cell membranes
Assay: human V1a receptor binding studies (3H-Vasopressin, SPA beads)
Details: membranes of HEK293 cells transiently transfected with human V1a receptor, Ki by Cheng-Prussoff from IC50, read-out: pKi hV1a (converted)
How it was run: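 Membranes from transiently transfected HEK293 cells expressing cloned human V1a receptor, on yttrium silicate SPA beads, competed against 4 nM 3H-vasopressin (added stock concentration) in Tris buffer with NaCl, KCl, CaCl2, MgCl2 for 1 h at room temperature. Nonspecific binding with cold vasopressin; IC50 by nonlinear fit, Ki via Cheng-Prusoff.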

T1 sequence (P37288 whole entry): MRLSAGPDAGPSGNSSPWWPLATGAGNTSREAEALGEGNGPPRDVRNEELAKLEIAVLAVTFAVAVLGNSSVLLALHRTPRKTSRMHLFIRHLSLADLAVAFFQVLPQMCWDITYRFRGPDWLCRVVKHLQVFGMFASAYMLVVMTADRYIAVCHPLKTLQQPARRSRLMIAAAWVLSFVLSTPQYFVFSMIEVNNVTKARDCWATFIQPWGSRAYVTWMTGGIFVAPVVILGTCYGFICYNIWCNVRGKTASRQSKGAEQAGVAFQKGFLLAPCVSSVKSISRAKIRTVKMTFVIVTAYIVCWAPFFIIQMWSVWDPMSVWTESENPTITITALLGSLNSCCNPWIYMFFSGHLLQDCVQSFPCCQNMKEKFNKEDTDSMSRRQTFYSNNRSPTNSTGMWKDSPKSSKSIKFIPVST

Structure (SMILES)	Ki [nM]
CC(=O)OC(c1ccc(Cl)cc1)C1OC(N2CCC3(CC2)OCc2ccccc23)=NC1=O (stereo not shown) [Example 41, (4-Chlorophenyl)[4-oxo-2-(1′H,3H-spiro[2-benzofuran-1,4′-piperidin]-1′-yl)-4,5-dihydro-1,3-oxazol-5-yl]methyl acetate]	31.6
C=CCC1(CC(=C)F)OC(N2CCC3(CC2)OCc2ccccc23)=NC1=O (stereo not shown) [Example 54, 5-Allyl-5-(2-fluoroallyl)-2-(3H-spiro[isobenzofuran-1,4′-piperidine]-1′-yl)oxazol-4(5H)-one]	631
CC#CCC1(CC#CC)OC(N2CCC3(CC2)OCc2ccccc23)=NC1=O [Example 55, 5,5-Di(but-2-ynyl)-2-(3H-spiro[isobenzofuran-1,4′-piperidine]-1′-yl)oxazol-4(5H)-one]	5.01
C=C(C)CC1(CC(=C)C)OC(N2CCC3(CC2)OCc2ccccc23)=NC1=O [Example 56, 5,5-bis(2-Methylprop-2-en-1-yl)-2-(1′H,3H-spiro[2-benzofuran-1,4′-piperidin]-1′-yl)-1,3-oxazol-4(5H)-one]	15.8
C#CCC1(CC=C)OC(N2CCC3(CC2)OCc2ccccc23)=NC1=O (stereo not shown) [Example 57, 5-(Prop-2-en-1-yl)-5-(prop-2-yn-1-yl)-2-(1′H,3H-spiro[2-benzofuran-1,4′-piperidin]-1′-yl)-1,3-oxazol-4(5H)-one]	39.8
C=CCC1(CC=C)OC(N2CCC3(CC2)OCc2ccccc23)=NC1=O [Example 58, 5,5-Di(prop-2-en-1-yl)-2-(1′H,3H-spiro[2-benzofuran-1,4′-piperidin]-1′-yl)-1,3-oxazol-4(5H)-one]	50.1
C=CCC1(CC(=C)C)OC(N2CCC3(CC2)OCc2ccccc23)=NC1=O (stereo not shown) [Example 59, 5-Allyl-5-(2-methylallyl)-2-(1′H,3H-spiro[2-benzofuran-1,4′-piperidin]-1′-yl)-1,3-oxazol-4(5H)-one]	10
C=CCC1(CC(=C)C(F)(F)F)OC(N2CCC3(CC2)OCc2ccccc23)=NC1=O (stereo not shown) [Example 60, 5-(Prop-2-en-1-yl)-2-(1′H,3H-spiro[2-benzofuran-1,4′-piperidin]-1′-yl)-5-[2-(trifluoromethyl)prop-2-en-1-yl]-1,3-oxazol-4(5H)-one]	25.1
C=CCC1(CC(=C)C(=O)OCC)OC(N2CCC3(CC2)OCc2ccccc23)=NC1=O (stereo not shown) [Example 61, Ethyl 2-{[4-oxo-5-(prop-2-en-1-yl)-2-(1′H,3H-spiro[2-benzofuran-1,4′-piperidin]-1′-yl)-4,5-dihydro-1,3-oxazol-5-yl]methyl}prop-2-enoate]	794
C#CCC1(CC(=C)C(=O)OCC)OC(N2CCC3(CC2)OCc2ccccc23)=NC1=O (stereo not shown) [Example 62, Ethyl 2-((4-oxo-5-(prop-2-ynyl)-2-(3H-spiro[isobenzofuran-1,4′-piperidine]-1′-yl)-4,5-dihydrooxazol-5-yl)methyl)acrylate]	631
C=CCC1(CC(=C)Br)OC(N2CCC3(CC2)OCc2ccccc23)=NC1=O (stereo not shown) [Example 63, 5-(2-Bromoprop-2-en-1-yl)-5-(prop-2-en-1-yl)-2-(1′H,3H-spiro[2-benzofuran-1,4′-piperidin]-1′-yl)-1,3-oxazol-4(5H)-one]	12.6
C=C(CC1(CC(=C)C(F)(F)F)OC(N2CCC3(CC2)OCc2ccccc23)=NC1=O)C(F)(F)F [Example 64, 2-(3H-Spiro[isobenzofuran-1,4′-piperidine]-1′-yl)-5,5-bis(2-(trifluoromethyl)allyl)oxazol-4(5H)-one]	12.6
C=CCC1(CC(=C)CO[Si](C)(C)C(C)(C)C)OC(N2CCC3(CC2)OCc2ccccc23)=NC1=O (stereo not shown) [Example 65, 5-[2-({[tert-Butyl(dimethyl)silyl]oxy}methyl)prop-2-en-1-yl]-5-(prop-2-en-1-yl)-2-(1′H,3H-spiro[2-benzofuran-1,4′-piperidin]-1′-yl)-1,3-oxazol-4(5H)-one]	63.1
CCCCC1(C)OC(N2CCC3(CC2)OCc2ccccc23)=NC1=O (stereo not shown) [Example 66, 5-Butyl-5-methyl-2-(1′H,3H-spiro[2-benzofuran-1,4′-piperidin]-1′-yl)-1,3-oxazol-4(5H)-one]	39.8
CCCCC1(C)OC(N2CCC3(CC2)OC(=O)c2ccccc23)=NC1=O (stereo not shown) [Example 69, 1′-(5-Butyl-5-methyl-4-oxo-4,5-dihydro-1,3-oxazol-2-yl)-3H-spiro[2-benzofuran-1,4′-piperidin]-3-one]	316
CCC1(Cc2ccccc2)OC(N2CCC3(CC2)OCc2ccccc23)=NC1=O (stereo not shown) [Example 74, 5-Benzyl-5-ethyl-2-(1′H,3H-spiro[2-benzofuran-1,4′-piperidin]-1′-yl)-1,3-oxazol-4(5H)-one]	10
CC1(Cc2ccc(Cl)cc2)OC(N2CCC3(CC2)OCc2ccccc23)=NC1=O (stereo not shown) [Example 75, 5-(4-Chlorobenzyl)-5-methyl-2-(1′H,3H-spiro[2-benzofuran-1,4′-piperidin]-1′-yl)-1,3-oxazol-4(5H)-one]	3.98
CC1(CC2CCCC2)OC(N2CCC3(CC2)OCc2ccccc23)=NC1=O (stereo not shown) [Example 76, 5-(Cyclopentylmethyl)-5-methyl-2-(1′H,3H-spiro[2-benzofuran-1,4′-piperidin]-1′-yl)-1,3-oxazol-4(5H)-one]	5.01
CC1(CC2CCCCC2)OC(N2CCC3(CC2)OCc2ccccc23)=NC1=O (stereo not shown) [Example 79, 5-(Cyclohexylmethyl)-5-methyl-2-(1′H,3H-spiro[2-benzofuran-1,4′-piperidin]-1′-yl)-1,3-oxazol-4(5H)-one]	20
CC1(Cc2ccc(Cl)nc2)OC(N2CCC3(CC2)OCc2ccccc23)=NC1=O (stereo not shown) [Example 82, 5-[(6-Chloropyridin-3-yl)methyl]-5-methyl-2-(1′H,3H-spiro[2-benzofuran-1,4′-piperidin]-1′-yl)-1,3-oxazol-4(5H)-one]	50.1
CC1(Cc2ccc(Cl)s2)OC(N2CCC3(CC2)OCc2ccccc23)=NC1=O (stereo not shown) [Example 85, 5-[(5-Chlorothiophen-2-yl)methyl]-5-methyl-2-(1′H,3H-spiro[2-benzofuran-1,4′-piperidin]-1′-yl)-1,3-oxazol-4(5H)-one]	5.01
CC1(Cc2c(F)c(F)c(F)c(F)c2F)OC(N2CCC3(CC2)OCc2ccccc23)=NC1=O (stereo not shown) [Example 88, 5-Methyl-5-(pentafluorobenzyl)-2-(1′H,3H-spiro[2-benzofuran-1,4′-piperidin]-1′-yl)-1,3-oxazol-4(5H)-one]	79.4
CC1(C(F)(F)c2ccc(C(F)F)cc2)OC(N2CCC3(CC2)OCc2ccccc23)=NC1=O (stereo not shown) [Example 89, 5-{[4-(Difluoromethyl)phenyl](difluoro)methyl}-5-methyl-2-(1′H,3H-spiro[2-benzofuran-1,4′-piperidin]-1′-yl)-1,3-oxazol-4(5H)-one]	158

Continued, values first:

Ki [nM]	Structure (SMILES)
126	CC1(C(O)c2ccccc2)OC(N2CCC3(CC2)OCc2ccccc23)=NC1=O (stereo not shown) [Example 90, 5-[Hydroxy(phenyl)methyl]-5-methyl-2-(1′H,3H-spiro[2-benzofuran-1,4′-piperidin]-1′-yl)-1,3-oxazol-4(5H)-one]
25.1	CC1(C(O)c2ccc(Cl)cc2)OC(N2CCC3(CC2)OCc2ccccc23)=NC1=O (stereo not shown) [Example 91, 5-[(4-Chlorophenyl)(hydroxy)methyl]-5-methyl-2-(1′H,3H-spiro[2-benzofuran-1,4′-piperidin]-1′-yl)-1,3-oxazol-4(5H)-one]
31.6	CC1(C(F)c2ccc(Cl)cc2)OC(N2CCC3(CC2)OCc2ccccc23)=NC1=O (stereo not shown) [Example 92, 5-[(4-Chlorophenyl)(fluoro)methyl]-5-methyl-2-(1′H,3H-spiro[2-benzofuran-1,4′-piperidin]-1′-yl)-1,3-oxazol-4(5H)-one]
126	CC1(C(O)c2ccc(Cl)cc2)OC(N2CCC3(CC2)OC(=O)c2ccccc23)=NC1=O (stereo not shown) [Example 93, 1′-{5-[(4-Chlorophenyl)(hydroxy)methyl]-5-methyl-4-oxo-4,5-dihydro-1,3-oxazol-2-yl}-3H-spiro[2-benzofuran-1,4′-piperidin]-3-one]
1	O=C1N=C(N2CCC3(CC2)OCc2ccccc23)OC1(Cc1ccc(Cl)cc1)Cc1ccc(Cl)cc1 [Example 94, 5,5-bis(4-Chlorobenzyl)-2-(1′H,3H-spiro[2-benzofuran-1,4′-piperidin]-1′-yl)-1,3-oxazol-4(5H)-one]
5.01	O=C1OC2(CCN(C3=NC(=O)C(Cc4ccc(Cl)cc4)(Cc4ccc(Cl)cc4)O3)CC2)c2ccccc21 [Example 95, 1′-[5,5-Bis(4-chlorobenzyl)-4-oxo-4,5-dihydro-1,3-oxazol-2-yl]-3H-spiro[2-benzofuran-1,4′-piperidin]-3-one]
251	CC1(CN2CCCC2)OC(N2CCC3(CC2)OCc2ccccc23)=NC1=O (stereo not shown) [Example 98, 5-Methyl-5-(pyrrolidin-1-ylmethyl)-2-(1′H,3H-spiro[2-benzofuran-1,4′-piperidin]-1′-yl)-1,3-oxazol-4(5H)-one]
200	CC1(CC2CCCO2)OC(N2CCC3(CC2)OCc2ccccc23)=NC1=O (stereo not shown) [Example 101, 5-Methyl-2-(1′H,3H-spiro[2-benzofuran-1,4′-piperidin]-1′-yl)-5-(tetrahydrofuran-2-ylmethyl)-1,3-oxazol-4(5H)-one]
158	O=C1N=C(N2CCC3(CC2)OCc2ccccc23)OC12CCCC2 [Example 112, 2-(3H-Spiro[isobenzofuran-1,4′-piperidine]-1′-yl)-1-oxa-3-azaspiro[4.4]non-2-en-4-one]
100	O=C1N=C(N2CCC3(CC2)OCc2ccccc23)OC12CC=CC2 [Example 113, 2-(1′H,3H-Spiro[2-benzofuran-1,4′-piperidin]-1′-yl)-1-oxa-3-azaspiro[4.4]nona-2,7-dien-4-one]
12.6	CC1=CCC2(C1)OC(N1CCC3(CC1)OCc1ccccc13)=NC2=O (stereo not shown) [Example 114, 7-Methyl-2-(1′H,3H-spiro[2-benzofuran-1,4′-piperidin]-1′-yl)-1-oxa-3-azaspiro[4.4]nona-2,7-dien-4-one]
